Test results published in article PMC8273887 (Journal of Medicinal Chemistry, 2021).

Assays:
LINGO2 = molecular target: T1, LINGO2 (Homo sapiens, UniProt Q7L985); test: BRET assay of LINGO2 dimerization in HEK-293 cells; type: cell-based; conditions: HEK-293 coexpressing LINGO2-YFP and LINGO2-Rluc; 0.1–10 μM peptide, 20 min incubation; coelenterazine 5 μM; n = 4
T1 construct: expressed in transfected cells; host or cells: HEK-293, transient transfection by the calcium phosphate method
T1 sequence (Q7L985 28-606) 1: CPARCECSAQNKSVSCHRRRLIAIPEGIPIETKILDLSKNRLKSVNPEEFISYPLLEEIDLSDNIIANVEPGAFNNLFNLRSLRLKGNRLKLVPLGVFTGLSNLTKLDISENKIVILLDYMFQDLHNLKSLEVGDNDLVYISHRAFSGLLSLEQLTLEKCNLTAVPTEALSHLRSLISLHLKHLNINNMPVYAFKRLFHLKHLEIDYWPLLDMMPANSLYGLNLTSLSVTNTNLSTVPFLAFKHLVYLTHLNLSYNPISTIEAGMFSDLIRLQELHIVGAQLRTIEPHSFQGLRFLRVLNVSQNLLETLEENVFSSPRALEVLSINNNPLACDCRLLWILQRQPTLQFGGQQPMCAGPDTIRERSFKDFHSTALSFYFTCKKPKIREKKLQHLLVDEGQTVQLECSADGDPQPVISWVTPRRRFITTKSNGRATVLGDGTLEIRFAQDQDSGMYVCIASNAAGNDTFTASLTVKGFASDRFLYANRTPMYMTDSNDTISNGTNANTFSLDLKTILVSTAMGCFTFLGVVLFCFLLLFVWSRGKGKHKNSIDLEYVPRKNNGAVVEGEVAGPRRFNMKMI
T1 sequence (Q7L985 28-606) 2: T1 sequence (Q7L985 28-606) 1
Text: LINGO2 has also been put forward as a potential TFF3 receptor.[38] We thus evaluated whether TFF3(C^57Acm) or TFF3 homodimer could disturb LINGO2 dimerization via a bioluminescence resonance energy transfer (BRET) assay. This method allows the study of protein interactions using energy transfer between a light-emitting enzyme and a fluorescent acceptor protein.[65] LINGO2 fused with Renilla luciferase (Rluc; protein donor) or yellow fluorescent protein (YFP; protein acceptor) were co-expressed in HEK-293 cells and BRET signal detected after adding the luminescent substrate coelenterazine. […] We then evaluated whether the TFF3 constructs could promote changes of this basal BRET signal by inducing conformational change within the dimers and/or change the dimerization state of LINGO2.
HEK-293 cells were cultured with 10% FBS at 37 °C and 5% CO2 in DMEM for 72–96 h. […] Then, total luminescence was measured by following coelenterazine addition (final concentration 5 μM). BRET signal was measured in four repeats and calculated by determining the emission ratio at 530/480 nm on cells coexpressing donor and acceptor and by subtracting the emission background BRET signal ratio (530/480 nm) of cells expressing only donor protein, then multiplying by 1,000 to obtain results in millBRET units (mBU).

CXCR4 = molecular target: T2, CXCR4 (Homo sapiens, UniProt P61073); test: Inositol 1 phosphate (IP1) accumulation assay (HTRF) in COS-7 cells transfected with CXCR4; type: cell-based; conditions: COS-7 transiently co-transfected with CXCR4-eYFP and chimeric GαΔ6qi4myr; 10^-12 to 10^-5 M, 1 h, 37 °C; HTRF; n ≥ 2
T2 construct: expressed in transfected cells; host or cells: COS-7 (African green monkey), transient co-transfection with GαΔ6qi4myr
T2 sequence (P61073 whole entry): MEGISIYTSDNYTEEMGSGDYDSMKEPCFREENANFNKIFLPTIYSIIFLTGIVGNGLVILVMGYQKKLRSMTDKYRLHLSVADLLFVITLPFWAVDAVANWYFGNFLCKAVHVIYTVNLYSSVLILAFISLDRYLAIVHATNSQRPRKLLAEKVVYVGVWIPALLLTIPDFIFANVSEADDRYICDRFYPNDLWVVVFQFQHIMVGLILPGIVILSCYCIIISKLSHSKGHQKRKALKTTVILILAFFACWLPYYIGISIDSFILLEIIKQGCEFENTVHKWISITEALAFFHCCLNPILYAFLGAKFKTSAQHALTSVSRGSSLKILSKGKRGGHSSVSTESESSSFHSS
Procedure, shortened: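 COS-7 cells transiently co-transfected with CXCR4-eYFP and chimeric GαΔ6qi4myr were stimulated 1 h at 37 °C in HBSS with 20 mM LiCl; final ligand 10^–12 to 10^–5 M CXCL12, 1 or 10 μM TFF3 forms. IP1 measured by competitive HTRF (665/620 ratio), normalized to CXCL12 response.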

SH-SY5Y cells = test: Antiapoptotic assay (etoposide-induced cell death, caspase-3/7 activity); type: cell-based, human; conditions: etoposide 10 μM and peptide 10 μM added at the same time, caspase-3/7 activity after 6 h, n ≥ 3 independent experiments
Experimental: (A) Cell death was induced with etoposide (10 μM), and cells were treated with 10 μM of TFF3. Etoposide and TFF3 were added at the same time. Caspase-3/7 activity was measured after 6 h. […] Z-DEVD-FMK (50 μM; caspase-3 inhibitor) was used as the positive control. E: etoposide, E + C3I: etoposide + caspase-3 inhibitor. One-way analysis of variance (ANOVA) followed by Dunnett correction was performed to assess differences between treated cells and etoposide only. *p < 0.05, **p < 0.01.
SH-SY5Y cells were seeded (13–15 × 10^3 cells/well) in 96-well microplates in DMEM with 10% (v/v) fetal calf serum (FCS; Gibco), 2 mM L-glutamine, and 100 units/mL penicillin/streptomycin. The media was replaced with low riboflavin, complete Ham’s F12 medium with 10% (v/v) fetal calf serum, 2 mM L-glutamine, and 100 units/mL penicillin/streptomycin before the live-cell imaging. Cells were treated with the etoposide or the caspase-3 inhibitor or TFF3(C^57Acm) or TFF3 homodimer in the presence of IncuCyte caspase-3/7 green apoptosis reagent. Data were acquired using an IncuCyte ZOOM instrument with standard scan type setting (4 images per well) every 2 h for 48 h.

CC[C@H](C)[C@@H]1NC(=O)[C@H](CCCNC(=N)N)NC(=O)[C@H](CO)NC(=O)[C@H](CC(=O)O)NC(=O)[C@H](Cc2ccccc2)NC(=O)[C@@H]2CSSC[C@H](NC(=O)[C@H](CCC(N)=O)NC(=O)[C@H](CC(N)=O)NC(=O)[C@H](C)NC(=O)[C@H](CO)NC(=O)[C@H](CC(C)C)NC(=O)CNC(=O)[C@@H](NC(=O)[C@H](Cc3ccc(O)cc3)NC(=O)[C@H](CCC(=O)O)NC(=O)[C@@H](N)CCC(=O)O)C(C)C)C(=O)N[C@@H](C)C(=O)N[C@@H](C(C)C)C(=O)N3CCC[C@H]3C(=O)N[C@@H](C)C(=O)N[C@@H](CCCCN)C(=O)N[C@@H](CC(=O)O)C(=O)N[C@@H](CCCNC(=N)N)C(=O)N[C@@H](C(C)C)C(=O)N[C@@H](CC(=O)O)C(=O)N[C@H]3CSSC[C@H](NC(=O)CNC(=O)[C@H](CCCNC(=N)N)NC(=O)[C@H](CC(N)=O)NC(=O)[C@H](CC(N)=O)NC(=O)[C@H](CSSC[C@@H](C(=O)N[C@@H](Cc4ccccc4)C(=O)N[C@@H](CCCCN)C(=O)N4CCC[C@H]4C(=O)N[C@@H](CC(C)C)C(=O)N[C@@H](CCC(N)=O)C(=O)N[C@@H](CCC(=O)O)C(=O)N[C@@H](C)C(=O)N[C@@H](CCC(=O)O)C(=O)N[C@@H](CSCNC(C)=O)C(=O)N[C@H](C(=O)N[C@@H](Cc4ccccc4)C(=O)O)[C@@H](C)O)NC(=O)[C@H](Cc4c[nH]c5ccccc45)NC(=O)[C@@H]4CCCN4C(=O)[C@H](C(C)C)NC(=O)CNC(=O)[C@@H]4CCCN4C1=O)NC(=O)[C@H](CCC(=O)O)NC(=O)[C@H](CCCCN)NC(=O)[C@@H]1CCCN1C(=O)[C@H]([C@@H](C)O)NC(=O)[C@H](C(C)C)NC(=O)[C@H](Cc1c[nH]cn1)NC(=O)[C@@H]1CCCN1C(=O)[C@H](Cc1ccc(O)cc1)NC(=O)CNC3=O)C(=O)N2 [TFF3(C^57Acm)]
modification of LINGO2 BRET signal (LINGO2): no statistically significant (p > 0.05) modification of BRET signal
concentration up to which CXCR4 was not activated (agonism, IP1 accumulation) (CXCR4): > 10 µM
reduction of etoposide-induced cell death (caspase-3/7 active objects) (SH-SY5Y cells): statistically significant (p < 0.05) reduction in cell death
